# From patent publication US5114918A, “Endothelin antagonistic cyclic pentapeptides” (Banyu Pharmaceutical Co., Ltd., priority 1989, dated 1992)
# Like-named read-outs stand apart in the source and are kept apart here. Numbered stars: 1 amine (or outer) side, 2 acyl side, 3 side chain; on linkers, the order of the positions; unused ones are H or OH. Square brackets hold non-standard residues; d marks the D form. Peptide text beside a SMILES is read from it. * marks the point of attachment. X2 = CNC(=O)Cn1cc(C[C@@H](N[*:1])C(=O)[*:2])c2ccccc21; X6 = COC(=O)Cn1cc(C[C@@H](N[*:1])C(=O)[*:2])c2ccccc21; X4 = O=C1Nc2ccccc2C1C[C@@H](N[*:1])C(=O)[*:2]; dGly(2-thienyl) = N[C@@H](C(=O)O)c1cccs1; X1 = CC[C@](N[*:1])(C(=O)[*:2])c1cccs1; X7 = O=C([C@H](N[*:1])c1ccco1)[*:2]; d(aIle) = CC[C@H](C)[C@@H](N)C(=O)O; Cya = N[C@@H](CS(=O)(=O)O)C(=O)O; Hyp = O=C(O)[C@@H]1C[C@@H](O)CN1; dCya = N[C@H](CS(=O)(=O)O)C(=O)O; dPhg = N[C@@H](C(=O)O)c1ccccc1; NMeM = CN[C@@H](CCSC)C(=O)O; NMeA = CN[C@@H](C)C(=O)O; Nle = CCCC[C@H](N)C(=O)O; Orn = NCCC[C@H](N)C(=O)O; Nva = CCC[C@H](N)C(=O)O; For = O=C*
# Molecular target: T1, endothelin receptor (membrane of smooth muscle tissue of porcine aorta) (Sus scrofa, UniProt Q29010)
# T1 construct: from tissue; host or cells: smooth muscle tissue of porcine aorta (membrane fraction)
# T1 sequence (Q29010 21-427): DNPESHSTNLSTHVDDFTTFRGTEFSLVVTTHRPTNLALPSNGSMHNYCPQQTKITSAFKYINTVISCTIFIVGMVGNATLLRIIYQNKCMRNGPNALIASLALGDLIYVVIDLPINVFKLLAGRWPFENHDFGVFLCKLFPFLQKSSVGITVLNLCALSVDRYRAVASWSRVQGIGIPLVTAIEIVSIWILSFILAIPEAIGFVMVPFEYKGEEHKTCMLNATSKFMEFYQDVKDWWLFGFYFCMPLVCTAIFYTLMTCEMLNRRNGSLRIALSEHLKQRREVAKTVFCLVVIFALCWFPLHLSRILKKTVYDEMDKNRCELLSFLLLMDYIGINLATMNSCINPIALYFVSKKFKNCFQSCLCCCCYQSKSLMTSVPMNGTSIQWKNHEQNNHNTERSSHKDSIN
# Assay: Endothelin binding inhibition test (125I-endothelin-1, porcine aorta smooth muscle membrane)
# Conditions: for inhibition at 1.1 µM: read-out: 125I-endothelin-1 binding inhibition, Inhibition (%)
# Method: Endothelin binding inhibition test
# The smooth muscle tissue of porcine aorta was homogenized in a buffer solution of 10 mM MOPS, pH 7.4, at 4° C. by a polytron. To the homogenate, sucrose was added to a concentration of 20%, and the mixture was centrifuged at 1,000×g for 15 minutes, and the supernatant was further centrifuged at 10,000×g for 15 minutes. The supernatant thereof was further centrifuged at 90,000×g for 40 minutes. The membrane precipitate thereby obtained was suspended in a buffer solution of 5 mM HEPES/Tris, pH 7.4, at a concentration of 25 mg/ml.
# Then, 16 μl of this membrane suspension was added to 340 μl of 50 mM Tris/HCl buffer, pH 7.4, containing 10 μM calcium chloride, 10 μM magnesium chloride, 0.1 mM PMSF, 1 μM pepstatin A, 2 μM leupeptin, 1 mM 1,10-phenanthroline and 0.1% bovine serum albumin. To this suspension, 4 μl of (A) endothelin-1 (for nonspecific binding: 0.2 μM as the final concentration), (B) buffer solution A (for total control binding), or (C) a test compound (1.1 μM as the final concentration), was added. Further, to each suspension, 40 μl of ^125 I-endothelin-1 (12000-18000 cpm) was added. These mixtures were incubated at 25° C for 4 hours, then subjected to filtration on a glass filter GF/C and then washed with 5 mM HEPES/Tris, pH 7.4, containing 0.3% bovine serum albumin. Then, the radioactivity trapped by the glass filter was measured, and the ^125 I-endothelin-1 binding inhibition D (%) at 1.1 μM of the test compound was determined by the following equation. [formula] Each test was performed in triplicate.
# [1] = 1.1 μM of the test compound, porcine aorta smooth muscle membrane, 25° C, 4 hours
inhibition at 1.1 µM [1],Molecule,further results
84%,"CCC[C@@H]1NC(=O)[C@@H](C(C)C)NC(=O)[C@@H]2CCCN2C(=O)[C@@H](CC(=O)O)NC(=O)[C@@H](Cc2cn(C=O)c3ccccc23)NC1=O [Example 56, cyclo(-DTrp(CHO)-DAsp-Pro-DVal-Nva-)] (cyclo([Nva][dW](For)[dD]P[dV]))",–
81%,"CSCC[C@@H]1NC(=O)[C@@H](CC(=O)O)NC(=O)[C@@H](Cc2cn(C=O)c3ccccc23)NC(=O)[C@H](CC(C)C)NC(=O)[C@@H](C(C)C)NC1=O [Example 55, cyclo(-DTrp(CHO)-DAsp-Met-DVal-Leu-)] (cyclo(L[dW](For)[dD]M[dV]))",–
74%,"CC(C)C[C@@H]1NC(=O)[C@@H](C(C)C)NC(=O)[C@H](CS)NC(=O)[C@@H](CC(=O)O)NC(=O)[C@@H](Cc2c[nH]c3ccccc23)NC1=O [Example 25, cyclo(-DTrp-DAsp-Cys-DVal-Leu-)] (cyclo(C[dV]L[dW][dD]))",–
84%,"CC(C)C[C@@H]1NC(=O)[C@@H](C(C)C)NC(=O)[C@@H]2CCCN2C(=O)[C@@H](CC(=O)O)NC(=O)[C@@H](Cc2cn(C=O)c3ccccc23)NC1=O [Example 51, cyclo(-DTrp(CHO)-DAsp-Pro-DVal-Leu-)] (cyclo(L[dW](For)[dD]P[dV]))",–
85%,"CC(C)C[C@@H]1NC(=O)[C@@H](C(C)C)NC(=O)[C@H](C)N(C)C(=O)[C@@H](CC(=O)O)NC(=O)[C@@H](Cc2c[nH]c3ccccc23)NC1=O [Example 13, cyclo(-DTrp-DAsp-MeAla-DVal-Leu-)] (cyclo(L[dW][dD][NMeA][dV]))",–
81%,"CC[C@]1(c2cccs2)NC(=O)[C@@H]2CCCN2C(=O)[C@@H](CC(=O)O)NC(=O)[C@@H](Cc2c[nH]c3ccccc23)NC(=O)[C@H](CC(C)C)NC1=O [Example 82, cyclo(-DTrp-DAsp-Pro-DEtg-Leu-)] (cyclo(L[dW][dD]P[X1]))",–
88%,"CC(C)C[C@@H]1NC(=O)[C@@H](c2cccs2)NC(=O)[C@@H]2C[C@@H](O)CN2C(=O)[C@@H](CC(=O)O)NC(=O)[C@@H](Cc2c[nH]c3ccccc23)NC1=O [Example 79, cyclo(-DTrp-DAsp-trans-Hyp-DThg-Leu-)] (cyclo([Hyp][dGly(2-thienyl)]L[dW][dD]))",–
83%,"CC(C)C[C@@H]1NC(=O)[C@@H](c2ccco2)NC(=O)[C@@H]2CCCN2C(=O)[C@@H](CC(=O)O)NC(=O)[C@@H](Cc2c[nH]c3ccccc23)NC1=O [Example 80, cyclo(-DTrp-DAsp-Pro-DFug-Leu-)] (cyclo(L[dW][dD]P[X7]))",–
67%,"CC(C)C[C@@H]1NC(=O)[C@@H](C(C)C)NC(=O)[C@H](C)N(C)C(=O)[C@@H](CC(=O)O)NC(=O)[C@@H](CC2C(=O)Nc3ccccc32)NC1=O (stereo partly drawn) [Example 89, cyclo(-DTrp(O)-DAsp-MeAla-DVal-Leu-)] (cyclo(L[X4][dD][NMeA][dV]))",–
35%,"COC(=O)Cn1cc(C[C@H]2NC(=O)[C@H](CC(C)C)NC(=O)[C@@H](C(C)C)NC(=O)[C@@H]3CCCN3C(=O)[C@@H](CC(=O)O)NC2=O)c2ccccc21 [Example 90, cyclo(-DTrp(CH2 COOCH3)-DAsp-Pro-DVal-Leu-)] (cyclo(L[X6][dD]P[dV]))",–
74%,"CC(C)C[C@@H]1NC(=O)[C@@H](C(C)C)NC(=O)CNC(=O)[C@@H](CC(=O)O)NC(=O)[C@@H](Cc2c[nH]c3ccccc23)NC1=O [Example 11, cyclo(-DTrp-DAsp-Gly-DVal-Leu-)] (cyclo(G[dV]L[dW][dD]))",–

# Continued, molecule first:
Molecule,inhibition at 1.1 µM [1],further results
"CC(C)C[C@@H]1NC(=O)[C@@H](C(C)C)NC(=O)[C@H](CCCN)NC(=O)[C@@H](CC(=O)O)NC(=O)[C@@H](Cc2c[nH]c3ccccc23)NC1=O [Example 20, cyclo(-DTrp-DAsp-Orn-DVal-Leu-)] (cyclo(L[dW][dD][Orn][dV]))",65%,–
"CC(C)C[C@@H]1NC(=O)[C@@H](C(C)C)NC(=O)[C@H](CCC(=O)O)NC(=O)[C@@H](CC(=O)O)NC(=O)[C@@H](Cc2c[nH]c3ccccc23)NC1=O [Example 23, cyclo(-DTrp-DAsp-Glu-DVal-Leu-)] (cyclo(E[dV]L[dW][dD]))",72%,–
"CNC(=O)Cn1cc(C[C@H]2NC(=O)[C@H](CC(C)C)NC(=O)[C@@H](C(C)C)NC(=O)[C@@H]3CCCN3C(=O)[C@@H](CC(=O)O)NC2=O)c2ccccc21 [Example 92, cyclo(-DTrp(CH2 CONHCH3)-DAsp-Pro-DVal-Leu-)] (cyclo(L[X2][dD]P[dV]))",28%,–
"CCCC[C@@H]1NC(=O)[C@@H](C(C)C)NC(=O)[C@H](CO)NC(=O)[C@@H](CC(=O)O)NC(=O)[C@@H](Cc2c[nH]c3ccccc23)NC1=O [Example 36, cyclo(-DTrp-DAsp-Ser-DVal-Nle-)] (cyclo([Nle][dW][dD]S[dV]))",67%,–
cyclo([dW][dD]P[d(aIle)]L) [Example 32],–,"125I-endothelin-1 binding inhibition, Inhibition (%) [1]: 87%"
cyclo(-DTrp-DAsp-Cys(O3 Na)-DVal-Leu-) [Example 24],–,"125I-endothelin-1 binding inhibition, Inhibition (%) [1]: 78%"
cyclo(-DTrp(CHO)-DAsp-Met(O)-DVal-Leu-) [Example 77],–,"125I-endothelin-1 binding inhibition, Inhibition (%) [1]: 78%"
cyclo(-DTrp-DCys(O3 Na)-Glu-DVal-Leu-) [Example 49],–,"125I-endothelin-1 binding inhibition, Inhibition (%) [1]: 67%"
"CC(C)[C@H]1NC(=O)[C@H](C)NC(=O)[C@@H](CC(=O)O)NC(=O)[C@@H](Cc2c[nH]c3ccccc23)NC(=O)[C@@H]2CCCN2C1=O [Example 39, cyclo(-DTrp-DAsp-Ala-DVal-Pro-)] (cyclo(A[dV]P[dW][dD]))",18%,–
"CC(C)C[C@@H]1NC(=O)[C@@H](C(C)C)NC(=O)[C@H](CS(=O)(=O)O)NC(=O)[C@@H](CS(=O)(=O)O)NC(=O)[C@@H](Cc2c[nH]c3ccccc23)NC1=O [Example 42, cyclo(-DTrp-DCys(O3 Na)-Cys(O3 Na)-DVal-Leu-)] (cyclo([Cya][dV]L[dW][dCya]))",–,inhibition at 1.1 µM: 79%
"CC(C)C[C@@H]1NC(=O)[C@@H](c2ccccc2)NC(=O)[C@@H]2CCCN2C(=O)[C@@H](CC(=O)O)NC(=O)[C@@H](Cc2c[nH]c3ccccc23)NC1=O [Example 34, cyclo(-DTrp-DAsp-Pro-DPhg-Leu-)] (cyclo(L[dW][dD]P[dPhg]))",83%,–
"CC(C)C[C@@H]1NC(=O)[C@@H](C(C)C)NC(=O)[C@H](CCCCNC=O)NC(=O)[C@@H](CC(=O)O)NC(=O)[C@@H](Cc2c[nH]c3ccccc23)NC1=O [Example 57, cyclo(-DTrp-DAsp-Lys(CHO)-DVal-Leu-)] (cyclo(K(For)[dV]L[dW][dD]))",65%,–
cyclo([dW][dE]A[d(aIle)]L) [Example 8],–,"125I-endothelin-1 binding inhibition, Inhibition (%) [1]: 37%"
"CSCC[C@H]1C(=O)N[C@H](C(C)C)C(=O)N[C@@H](CC(C)C)C(=O)N[C@H](Cc2c[nH]c3ccccc23)C(=O)N[C@H](CC(=O)O)C(=O)N1C [Example 70, cyclo(-DTrp-DAsp-MeMet-DVal-Leu-)] (cyclo(L[dW][dD][NMeM][dV]))",85%,–
cyclo(-DTrp-DCys(O3 Na)-Pro-DThg-Leu-) [Example 76],–,"125I-endothelin-1 binding inhibition, Inhibition (%) [1]: 84%"
"CC(C)C[C@@H]1NC(=O)[C@@H](C(C)C)NC(=O)[C@H](C)NC(=O)[C@@H](CS(=O)(=O)O)NC(=O)[C@@H](Cc2c[nH]c3ccccc23)NC1=O [Example 2, cyclo(-DTrp-DCys(O3 Na)-Ala-DVal-Leu-)] (cyclo(A[dV]L[dW][dCya]))",78%,–
cyclo(-DTrp(CHO)-DCys(O3 Na)-Pro-DThg-Leu-) [Example 75],–,"125I-endothelin-1 binding inhibition, Inhibition (%) [1]: 87%"
